Article PMC11061149, “Protein mimetic 2D FAST rescues alpha synuclein aggregation mediated early and post disease Parkinson’s phenotypes” (Nature Communications, 2024)
Values joined by “and” are separate entries in the source; they are usually repeats but may differ in a detail not shown here. Equal entries are not always repeated.

Columns and labels:
UA196 worms [1] = test: Confocal counting of healthy DA neurons, post-disease onset PD model of UA196 worms (treatment on day five); type: in vivo, C. elegans
Method: The UA196 worms were bleached, and the eggs were incubated on PLATE 1. On day two, the UA196 worms were transferred (using M9 buffer) on PLATE 2 (without ligand). On day five, 10 UA196 worms were used to determine the number of healthy DA worms using confocal imaging (as described earlier) prior to the treatment with ligands on day five. In tandem, ~50 worms were transferred to PLATE 3 (with ligand) using M9 buffer (10-20 µL) and the plate was incubated at 20 °C in the incubator. On days 10 and 15, 10 UA196 worms from PLATE 2 (without ligand) and PLATE 3 (with ligand) were used to determine the number of healthy DA worms using confocal imaging (as described earlier). For each condition, six biological replicates were performed and at least 10 technical replicates were used for each biological replicate. […] (n = 6 independent experiments and each n consisted of a minimum of ten technical replicates).

UA196 worms [2] = test: ROS level in post-disease onset PD model of UA196 worms; type: in vivo, C. elegans
Method: The UA196 worms were bleached, and the eggs were incubated on PLATE 1. On day two, the UA196 worms were transferred (using M9 buffer) on PLATE 2 (without ligand). On day five, 100 UA196 worms were used to determine the ROS level (as described earlier) prior to the treatment with ligands on day five. In tandem, ~200 worms were transferred to PLATE 3 (with ligand) using M9 buffer (10-20 µL) and the plate was incubated at 20 °C in the incubator. On day 8, 100 UA196 worms from PLATE 2 (without ligand) and PLATE 3 (with ligand) were used to determine the ROS level (as described earlier). For each condition, three biological replicates were performed, and 3 technical replicates were used for each biological replicate. […] (n = 3 independent experiments and each n consisted of 3 technical replicates).

αS = target: T1, αS (Homo sapiens, UniProt P37840); test: Isothermal titration calorimetry (ITC); type: binding; conditions: ligand titrated into 15 μM αS in PBS; read-out: dissociation constant (Kd)
T1 construct: made in house; host or cells: E. coli BL21(DE3)
Method: The ITC experiments were performed in a NANO-ITC (TA Instruments, New Castle, DE). For each ITC experiment, a solution of 250 μM NS132 in PBS was serially titrated (2 μL injections […] via rotary syringe, stirring speed at 300 rpm) into a sample cell containing 350 μL of 15 μM αS in the same buffer conditions at 300 sec intervals. The heat associated with each injection was calculated by integrating each heat burst curve using NanoAnalyze software (TA Instruments, New Castle, DE). The associated heat for each injection of NS132 in αS solution was corrected by subtracting heat resulted from the titration of NS132 into buffer (in 1 × PBS) under identical conditions. The corrected heat values were plotted as a function of the molar ratio of NS132 to αS and the plot was fitted using a one binding site independent model available in NanoAnalyze software. The fitting was carried out using 10,000 iterations in the software without any data constraints during the fitting. The ITC titrations were conducted in triplicate and the reported thermodynamic parameters were calculated as an average of three independent experiments.

[3] = target: T2, α-Synuclein (αS) aggregation (Homo sapiens, UniProt P37840); test: Thioflavin T (ThT) dye-based αS aggregation assay (de novo); type: biochemical
T2 construct: made in house; host or cells: E. coli BL21(DE3)
In short: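 100 μM αS incubated ±ligand at equimolar ratio, 37 °C with shaking at 1300 rpm; aliquots diluted into PBS containing 50 μM ThT. Fluorescence read at λex 450/λem 490 nm over time, single-point value taken at 96 h; mean of triplicates.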

[4] = UA196 worms+NS132, Day 10, per trial (10 worms)
[5] = UA196 worms+NS132, Day 15, per trial (10 worms)

SMILES: Cc1ccc(NC(=O)c2ccc(NC(=O)c3ccc([N+](=O)[O-])c(NCCc4c[nH]c5ccccc45)n3)c(NCC3CCCCC3)n2)c(OCC(=O)O)n1 [NS132]
- number of intact healthy DA neurons (max. 60) (UA196 worms [1]; 50 μM ligand on day five, day 15 (untreated 13.8 / 12.8)): 32
- healthy DA neurons, Average (UA196 worms [1]; UA196+ 50 uM NS132, day 5 (same value as UA196 control)): 44.8333
- healthy DA neurons, Average (UA196 worms [1]; UA196+ 50 uM NS132, day 10): 34.8333
- healthy DA neurons, Average (UA196 worms [1]; UA196+ 50 uM NS132, day 15): 32
- healthy DA neurons per trial (UA196 worms [1]; UA196 worms+Ligands, single trials 1-6, day not given): 31 and 33
- Number of worms with 5 neurons (UA196 worms [1]; [4]): 1 and 2
- Number of worms with 6 neurons (UA196 worms [1]; [4]): 0
- number of worms with 3 neurons (UA196 worms [1]; [4]): 4 and 3
- number of worms with 4 neurons (UA196 worms [1]; [4]): 3 and 4
- Number of worms with 2 neurons (UA196 worms [1]; [5]): 1 and 2
- Number of worms with 5 neurons (UA196 worms [1]; [5]): 0
- Number of worms with 6 neurons (UA196 worms [1]; [5]): 0
- number of worms with 3 neurons (UA196 worms [1]; [5]): 4 and 3 and 2
- number of worms with 4 neurons (UA196 worms [1]; [5]): 4 and 5 and 6
- ROS level in UA196 worms, post-disease model, in words (UA196 worms [2]; 50 μM ligand on day five, ROS on day eight): very effective in decreasing the ROS level
- ROS level (dye fluorescence), Average (UA196 worms [2]; UA196+NS132, Day 5 (same value as UA196 control)): 1262.3
- ROS level (dye fluorescence), Average (UA196 worms [2]; UA196+NS132, Day 8): 733.721
- Kd (αS): 1.81 ± 0.33 µM
- ThT fluorescence intensity, Average ([3]; 100 µM αS + equimolar ligand, aggregation profile Fig. 2n/5c, time 0 hr): 108
- ThT fluorescence intensity, Average ([3]; 100 µM αS + equimolar ligand, comparison with reported ligands Fig. 5f, time 0 hr): 49.3333
- effect on αS aggregation (ThT assay), in words ([3]; 100 µM αS, equimolar, four days): completely suppressed
- ThT intensity relative to Synuclein alone (=1), Average ([3]; 100 µM αS, four days, equimolar): 0.008333
- ThT intensity relative to Synuclein alone (=1), Trial 1-3 ([3]; 100 µM αS, four days, equimolar, individual trials): 0.009745 and 0.008898 and 0.006356
- ThT fluorescence intensity, Average ([3]; Fig. 2n/5c profile, time 6 hr): 108
- ThT fluorescence intensity, Average ([3]; Fig. 2n/5c profile, time 12 hr): 44.6667
- ThT fluorescence intensity, Average ([3]; Fig. 2n/5c profile, time 24 hr): 48.6667
- ThT fluorescence intensity, Average ([3]; Fig. 2n/5c profile, time 35 hr): 41
- ThT fluorescence intensity, Average ([3]; Fig. 2n/5c profile, time 48 hr): 76.6667
- ThT fluorescence intensity, Average ([3]; Fig. 2n/5c profile, time 58 hr): 49
- ThT fluorescence intensity, Average ([3]; Fig. 2n/5c profile, time 77 hr): 35
- ThT fluorescence intensity, Average ([3]; Fig. 2n/5c profile, time 105 hr): 35.3333
- ThT fluorescence intensity, Average ([3]; Fig. 5f profile, time 6 hr): 35.6667
- ThT fluorescence intensity, Average ([3]; Fig. 5f profile, time 12 hr): 44.3333
- ThT fluorescence intensity, Average ([3]; Fig. 5f profile, time 24 hr): 46
- ThT fluorescence intensity, Average ([3]; Fig. 5f profile, time 36 hr): 47.6667
- ThT fluorescence intensity, Average ([3]; Fig. 5f profile, time 48 hr): 43.6667
- ThT fluorescence intensity, Average ([3]; Fig. 5f profile, time 72 hr): 43.6667
- ThT fluorescence intensity, Average ([3]; Fig. 5f profile, time 96 hr): 44.6667
- Relative ThT intensity of αS aggregation, Average ([3]; sheet S7A, Synuclein alone about 1): 0.008333
- Relative ThT intensity of αS aggregation ([3]; sheet S7A, Synuclein alone about 1, individual trials): 0.009745 and 0.008898 and 0.006356
- Relative ThT intensity of αS aggregation, Average ([3]; sheet S8B, Synuclein alone = 1): 0.04997
- Relative ThT intensity of αS aggregation ([3]; sheet S8B, Synuclein alone about 1, individual trials): 0.0476 and 0.0492 and 0.0531
- ThT intensity of Synuclein with ligand, Average ([3]; sheet S17, average of 3 trials, Synuclein alone 206, ThT control 37): 50.3667
- ThT intensity of Synuclein with ligand, Trial 1-3 ([3]; sheet S17, individual trials, Synuclein alone average 206, ThT control average 37): 48.4 and 53.2 and 49.5
- inhibition of αS aggregation, in words ([3]; substoichiometric ratio αS:NS132 1:0.2): wholly inhibit
- ThT intensity (raw), individual trials ([3]; αS aggregation after four days, NS132 derivatives equimolar (Fig. 2r)): 1344 and 1402 and 1510
